From US12590100B2, “Tetrahydro-spiroindoline-pyrrolopyrrole-triones inhibitors of the NRF2-β-TrCP interaction for use in the treatment of fatty liver disease” (Universidad Autonoma De Madrid, priority 2021, dated 2026)

Key:
Format in all cases: cell-based, mouse
[1] = tested on: NRF2; test: NRF2 and HO-1 protein levels in MEFs (immunoblot)
Description: FIG. 4. […] MEFs in serum-depleted conditions were subjected to (A-C) 1 μM, 3 μM, or 10 μM of PHAR and 10 μM of SFN as a positive control for 16 h; or (D-F) 10 μM of PHAR for the indicated times. In both experiments, 0.1% DMSO was used as a vehicle. A), representative immunoblots of NRF2, HO1, KEAP1, LAMINB, and GAPDH as loading controls. B) and C), densitometric analysis of NRF2 and HO1 protein levels of the representative immunoblots depicted in (A), expressed as a ratio of NRF2/LAMINB or HO1/GAPDH. The data is depicted as means±SEM (n=3). Statistical analysis was performed with one-way ANOVA followed by the Bonferroni test to check inter-group differences. *p<0.05; ***p<0.001 vs. 0. D), representative immunoblots of NRF2, HO1, KEAP1, LAMINB, and GAPDH as loading controls. E) and F), Densitometric analysis of NRF2 and HO1 protein levels of the representative immunoblots of (D), expressed as a ratio of NRF2/LAMINB or HO1/GAPDH. The data is depicted as means±SEM (n=3). Statistical analysis was performed with one-way ANOVA followed by the Bonferroni test to check inter-group differences. *p<0.05; ***p<0.001 vs. 0. G), Reporter MCF-7 c32 ARE-luc cells were subjected to 1 μM, 3 μM, or 9 μM of PHAR and 10 μM of SFN as a positive control. 0.1% DMSO was used as a vehicle. Luciferase activity was measured after 16 h of treatment. The data is depicted as means±SEM (n=3). Statistical analysis was performed with one-way ANOVA followed by the Bonferroni test to check inter-group differences. **p<0.01; ***p<0.001 vs. 0. H), MTT assay to evaluate cell viability/toxicity after treatments. I), Serum-deprived MEFs were subjected to 10 μM of PHAR. The mRNA levels of Hmox1, Nqo1, Aox1, Glc, and Gclm after 8 h of treatment were determined by means of pRT-PCR and normalized by means of average LaminB, Gapdh, and β-actin. The data is depicted as means±SEM (n=3). Statistical analysis was performed with the Student's T test. *p<0.05; **p<0.01 ***p<0.001 vs. 0.
In order to empirically determine if PHAR activates NRF2, mouse embryo fibroblasts (MEFs) were treated with several doses of the compound (1 μM, 3 μM, and […]) for 16 h and with 10 μM of sulforaphane (SFN), one of main electrophilic activators of NRF2, used as a positive control.
Moreover, a time course of NRF2 activation with PHAR (10 μM for 2, 4, and 8 h) or with SFN (10 μM, 8 h) was done as a positive control.

[2] = tested on: NRF2; test: HO-1 induction in Nrf2−/− versus Nrf2+/+ MEFs
Description: (§1) FIG. 5. PHAR-mediated NRF2 activation is independent of KEAP1 and is responsible for the increase in the expression of its targets. (A-D) Serum-deprived MEFs originating from wild-type (WT) or KEAP1 null (Keap1−/−) mice were treated with 10 μM of PHAR for the indicated times. 0.1% DMSO was used as a vehicle. A), representative immunoblots of NRF2, HO1, KEAP1, LAMINB, and GAPDH as loading controls. B) and C), densitometric analysis of NRF2 and HO1 protein levels of the representative immunoblots of (A), expressed as a ratio of NRF2/LAMINB or HO1/GAPDH. The data is depicted as means±SEM (n=3). Statistical analysis was performed with two-way ANOVA followed by the Bonferroni test to check inter-group differences. D), the mRNA levels of Hmox-1, Nqo1, Aox1, Gc1c, and Gc1m were determined after 8 h of 10 μM PHAR by means of qRT-PCR and normalized by means of average Gapdh, Tbp, and β-actin. The data is depicted as mean±SEM (n=3). Statistical analysis was performed with two-way ANOVA followed by the Bonferroni test to check inter-group differences. *p<0.05; **p<0.01; ***p<0.001 vs. 0 of MEF-WT. (E-H), Serum-deprived MEFs from wild-type (WT) or NRF2 null (Nrf2−/−) mice were subjected to 10 μM of PHAR for the indicated times. 0.1% DMSO was used as a vehicle. E), representative immunoblots of NRF2, HO1, KEAP1, LAMINB, and GAPDH as loading controls. F) and G), densitometric analysis of NRF2 and HO1 protein levels of the representative immunoblots of (E), expressed as a ratio of NRF2/LAMINB or HO1/GAPDH. […] H), the mRNA levels of Hmox-1, Nqo1, Aox1, Gclc, and Gclm were determined after 8 h of 10 μM PHAR by means of qRT-PCR and normalized by means of average Gapdh, Tbp, and β-actin. […]
From a viewpoint of biopharmaceutical usefulness, it is important to determine if PHAR acts on KEAP1/NRF2 interaction, or if it represents, in contrast, a novel approach directed specifically at β-TrCP/NRF2 interaction. […] As an additional control, the HO-1 levels in MEFs originating from NRF2 knock-out (Nrf2^−/−) and wild-type (Nrf2^+/+) mice from the same litter were analyzed by immunoblot. […]

[3] = tested on: NRF2; test: NRF2/HO-1 induction in Keap1−/− versus Keap1+/+ MEFs; conditions: PHAR 10 μM, 8 h
Description: as §1, with “Statistical analysis was performed with two-way ANOVA followed by the Bonferroni test to check inter-group differences. *p<0.05; **p<0.01; ***p<0.001 vs. 0 of MEF-WT. (E-H), Serum-deprived MEFs from wild-type (WT) or NRF2 null (Nrf2−/−) mice were subjected to 10 μM of PHAR for the indicated times. 0.1% DMSO was used as a vehicle. E), representative immunoblots of NRF2, HO1, KEAP1, LAMINB, and GAPDH as loading controls.” left out

`O=C1[C@@H]2[C@H](Cc3c[nH]c4ccccc34)N[C@]3(C(=O)Nc4ccc(Cl)cc43)[C@@H]2C(=O)N1c1ccc2c(c1)OCCO2` [PHAR] was tested, and the HO-1 levels ([1]; 16 h, PHAR 1, 3, 9 μM) was “increase, mainly with the dose of 9 μM”, the NRF2 accumulation ([1]; 16 h, PHAR 1, 3, 9 μM, SFN 10 μM) was “induced NRF2 accumulation, although to a slightly lesser extent than the accumulation induced by SFN” and the “NRF2 accumulation, time course” value ([1]; PHAR 10 μM for 2, 4, 8 h, SFN 10 μM, 8 h) was “induced NRF2 accumulation 2 h after treatment”. The “HO-1 levels, time course” value ([1]; PHAR 10 μM, 8 h) was “increase in HO-1 levels after 8 h”, the “HO-1 increase in MEFs from Nrf2−/− mice” value ([2]; PHAR 10 μM, 2, 4, 8 h) was “not observed” and the “HO-1 levels in MEFs from Nrf2+/+ mice” value ([2]; PHAR 10 μM, 2, 4, 8 h) was “significant increase in HO-1”. For the same compound, the “mRNA levels of NRF2 targets in Nrf2+/+ and Nrf2−/− MEFs” value ([2]; PHAR 10 μM, 8 h) was “The same result was obtained” and the “mRNA levels of other NRF2 targets in Keap1−/− compared with Keap1+/+ MEFs” value [3] was “The same result was obtained”.
